Key:
PedH = molecular target: T1, PedH (Pseudomonas putida, UniProt Q88JH0); settings: 100 nM enzyme reconstituted with PQQ, 50 mM ethanol
T1 sequence (Q88JH0 28-595): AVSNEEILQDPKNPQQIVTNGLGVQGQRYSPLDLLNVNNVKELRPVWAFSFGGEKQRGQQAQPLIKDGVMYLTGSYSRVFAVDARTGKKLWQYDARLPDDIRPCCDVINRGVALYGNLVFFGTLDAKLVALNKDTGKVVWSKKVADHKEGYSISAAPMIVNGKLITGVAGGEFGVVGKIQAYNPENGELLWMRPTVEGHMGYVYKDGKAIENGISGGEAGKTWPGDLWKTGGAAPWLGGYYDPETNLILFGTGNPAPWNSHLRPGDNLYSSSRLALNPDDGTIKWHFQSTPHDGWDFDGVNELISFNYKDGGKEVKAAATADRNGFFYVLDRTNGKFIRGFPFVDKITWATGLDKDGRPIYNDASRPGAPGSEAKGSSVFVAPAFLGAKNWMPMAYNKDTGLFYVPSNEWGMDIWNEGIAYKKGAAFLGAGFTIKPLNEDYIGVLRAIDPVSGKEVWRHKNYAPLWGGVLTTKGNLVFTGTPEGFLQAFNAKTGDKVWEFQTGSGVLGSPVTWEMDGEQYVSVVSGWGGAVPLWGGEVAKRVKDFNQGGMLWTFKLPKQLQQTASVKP

YliI = molecular target: T2, YliI (Escherichia coli, UniProt P75804); assay: coupled colorimetric assay; assay type: biochemical; settings: 100 nM enzyme reconstituted with PQQ, 1.25 M glucose
T2 construct: recombinant, purified cofactor-free; details only in supplement
T2 sequence (P75804 21-371): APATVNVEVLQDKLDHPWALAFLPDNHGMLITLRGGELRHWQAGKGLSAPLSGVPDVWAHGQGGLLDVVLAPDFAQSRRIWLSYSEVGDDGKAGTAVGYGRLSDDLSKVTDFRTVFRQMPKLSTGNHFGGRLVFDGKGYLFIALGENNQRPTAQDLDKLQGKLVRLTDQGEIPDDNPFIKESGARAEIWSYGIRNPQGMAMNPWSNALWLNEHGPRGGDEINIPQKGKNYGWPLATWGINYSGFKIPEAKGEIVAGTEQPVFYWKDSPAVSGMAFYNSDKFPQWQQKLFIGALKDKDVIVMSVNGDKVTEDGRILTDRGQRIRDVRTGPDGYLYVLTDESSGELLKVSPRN

SurA = molecular target: T3, SurA (Escherichia coli, UniProt P0ABZ6); assay: UV/vis spectral shift; intact protein LC-MS; assay type: binding; settings: covalent; 100 uM protein, 300 uM PQQ, 4 °C overnight
T3 construct: recombinant from E. coli BL21, purified without PQQ
T3 sequence (P0ABZ6 21-428): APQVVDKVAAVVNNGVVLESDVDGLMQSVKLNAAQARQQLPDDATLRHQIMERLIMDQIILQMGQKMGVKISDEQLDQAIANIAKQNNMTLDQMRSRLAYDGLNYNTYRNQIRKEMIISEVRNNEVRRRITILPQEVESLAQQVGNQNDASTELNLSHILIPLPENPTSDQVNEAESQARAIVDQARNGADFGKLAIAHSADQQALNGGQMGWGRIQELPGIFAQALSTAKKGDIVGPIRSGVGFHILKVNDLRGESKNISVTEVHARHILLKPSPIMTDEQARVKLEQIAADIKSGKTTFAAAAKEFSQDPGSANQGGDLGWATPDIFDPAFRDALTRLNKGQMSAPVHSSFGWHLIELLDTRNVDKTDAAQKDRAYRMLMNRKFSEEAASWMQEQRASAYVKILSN

Tig (trigger factor) = molecular target: T4, Tig (trigger factor) (Escherichia coli, UniProt P0A850); assay: UV/vis spectral shift; intact protein LC-MS; assay type: binding; settings: covalent; 100 uM protein, 300 uM PQQ, 4 °C overnight
T4 construct: recombinant from E. coli BL21, purified without PQQ
T4 sequence (P0A850 1-432): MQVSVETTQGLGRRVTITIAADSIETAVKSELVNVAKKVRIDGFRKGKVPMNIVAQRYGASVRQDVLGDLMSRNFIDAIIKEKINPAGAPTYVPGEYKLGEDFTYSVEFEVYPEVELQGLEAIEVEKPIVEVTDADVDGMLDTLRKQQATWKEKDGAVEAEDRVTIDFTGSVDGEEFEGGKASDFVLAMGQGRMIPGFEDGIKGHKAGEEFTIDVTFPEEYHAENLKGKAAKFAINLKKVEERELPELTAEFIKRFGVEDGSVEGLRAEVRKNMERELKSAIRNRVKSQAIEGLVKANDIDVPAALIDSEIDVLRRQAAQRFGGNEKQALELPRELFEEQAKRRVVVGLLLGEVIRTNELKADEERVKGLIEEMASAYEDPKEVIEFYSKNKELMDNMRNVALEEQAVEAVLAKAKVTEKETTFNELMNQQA

FklB = molecular target: T5, FklB (Escherichia coli, UniProt P0A9L3); assay: UV/vis spectral shift; competition of PQQ4 labelling; assay type: binding; settings: no covalent adduct by intact protein MS
T5 construct: recombinant from E. coli BL21, purified without PQQ
T5 sequence (P0A9L3 2-206): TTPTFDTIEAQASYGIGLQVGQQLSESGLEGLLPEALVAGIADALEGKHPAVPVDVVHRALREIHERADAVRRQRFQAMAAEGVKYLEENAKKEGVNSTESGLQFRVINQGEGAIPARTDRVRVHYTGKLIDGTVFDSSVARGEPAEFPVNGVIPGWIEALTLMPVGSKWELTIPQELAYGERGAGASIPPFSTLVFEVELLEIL

[1] = molecular target: T6, MBP (maltose-binding protein) (Escherichia coli, UniProt P0AEX9); assay: UV/vis spectral shift; intact protein LC-MS; settings: covalent; 100 uM protein, 300 uM PQQ, 4 °C overnight
T6 construct: gene malE; recombinant from E. coli BL21, purified without PQQ

HtpG = molecular target: T7, HtpG (Escherichia coli, UniProt P0A6Z3); assay: UV/vis spectral shift; intact protein LC-MS; assay type: binding; settings: covalent; 100 uM protein, 300 uM PQQ, 4 °C overnight
T7 construct: recombinant from E. coli BL21, purified without PQQ; 73529 Da peak is a +135 Da adduct
T7 sequence (P0A6Z3 whole entry): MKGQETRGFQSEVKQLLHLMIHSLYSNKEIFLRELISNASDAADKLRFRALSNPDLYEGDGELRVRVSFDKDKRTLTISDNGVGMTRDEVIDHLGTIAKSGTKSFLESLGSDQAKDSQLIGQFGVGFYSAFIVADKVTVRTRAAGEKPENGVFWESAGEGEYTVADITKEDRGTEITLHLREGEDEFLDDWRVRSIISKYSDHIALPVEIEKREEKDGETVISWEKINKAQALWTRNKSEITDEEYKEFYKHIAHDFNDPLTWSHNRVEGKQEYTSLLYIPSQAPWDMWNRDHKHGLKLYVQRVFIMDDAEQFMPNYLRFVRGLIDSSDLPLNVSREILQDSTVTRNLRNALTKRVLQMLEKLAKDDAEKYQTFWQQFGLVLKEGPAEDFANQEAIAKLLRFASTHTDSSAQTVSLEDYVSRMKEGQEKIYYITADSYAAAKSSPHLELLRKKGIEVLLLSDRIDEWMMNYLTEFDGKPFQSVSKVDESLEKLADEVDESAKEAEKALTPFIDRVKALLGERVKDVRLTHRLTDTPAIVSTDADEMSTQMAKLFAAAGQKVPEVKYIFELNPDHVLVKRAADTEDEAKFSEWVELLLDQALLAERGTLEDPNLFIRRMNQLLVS

[2] = molecular target: T8, 6PGD / 6GPD (6-phosphogluconate dehydrogenase, decarboxylating) (Escherichia coli, UniProt P00350); assay: MS/MS closed search of +310 Da on lysine; assay type: biochemical; settings: covalent; E. coli K-12 lysate 3.5 mg/mL, 2000 uM PQQ, 2000 uM CaCl2, 37 °C, 4 h
T8 construct: gene gnd; endogenous protein in E. coli K-12 lysate
T8 sequence (P00350 1-468): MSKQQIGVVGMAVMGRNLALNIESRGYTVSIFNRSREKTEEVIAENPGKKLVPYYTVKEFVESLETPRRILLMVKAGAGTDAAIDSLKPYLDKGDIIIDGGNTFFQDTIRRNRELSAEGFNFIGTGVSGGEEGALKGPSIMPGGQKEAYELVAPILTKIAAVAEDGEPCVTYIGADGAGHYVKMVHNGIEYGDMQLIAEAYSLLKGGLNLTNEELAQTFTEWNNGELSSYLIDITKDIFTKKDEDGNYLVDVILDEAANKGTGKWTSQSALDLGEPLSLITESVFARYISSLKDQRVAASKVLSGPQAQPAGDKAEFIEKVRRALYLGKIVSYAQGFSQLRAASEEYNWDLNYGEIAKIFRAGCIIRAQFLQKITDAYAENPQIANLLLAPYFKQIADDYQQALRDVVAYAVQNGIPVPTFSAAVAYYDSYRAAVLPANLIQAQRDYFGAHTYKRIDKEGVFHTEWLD

PpiD = molecular target: T9, PpiD (Pseudomonas putida, UniProt Q88KI6); assay: UV/vis spectral shift; intact protein LC-MS; assay type: binding; settings: covalent; 100 uM protein, 300 uM PQQ, 4 °C overnight
T9 construct: gene PP_2304; recombinant from E. coli BL21, purified without PQQ
T9 sequence (Q88KI6 36-623): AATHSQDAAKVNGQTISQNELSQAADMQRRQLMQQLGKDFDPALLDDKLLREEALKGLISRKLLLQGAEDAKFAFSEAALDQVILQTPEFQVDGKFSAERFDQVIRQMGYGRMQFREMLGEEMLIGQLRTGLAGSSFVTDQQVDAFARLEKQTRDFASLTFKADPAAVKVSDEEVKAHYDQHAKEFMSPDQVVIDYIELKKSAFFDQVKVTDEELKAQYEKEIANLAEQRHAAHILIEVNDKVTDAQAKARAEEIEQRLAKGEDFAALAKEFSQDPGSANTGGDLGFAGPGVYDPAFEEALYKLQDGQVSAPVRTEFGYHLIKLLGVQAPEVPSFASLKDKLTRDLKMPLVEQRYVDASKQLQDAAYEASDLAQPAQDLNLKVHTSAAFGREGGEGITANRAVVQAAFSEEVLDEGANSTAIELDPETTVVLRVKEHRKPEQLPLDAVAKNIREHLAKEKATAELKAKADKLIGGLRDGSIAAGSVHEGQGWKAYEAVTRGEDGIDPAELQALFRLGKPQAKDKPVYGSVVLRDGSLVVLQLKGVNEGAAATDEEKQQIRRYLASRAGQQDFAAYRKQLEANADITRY

RuvB = molecular target: T10, RuvB (Escherichia coli, UniProt P0A812); assay: UV/vis spectral shift; intact protein MS; MS/MS site mapping; assay type: binding; settings: covalent; lysine K26 (main) and K46; 100 uM protein, 300 uM PQQ, 4 °C overnight
T10 construct: recombinant from E. coli BL21, purified without PQQ
T10 sequence (P0A812 1-336): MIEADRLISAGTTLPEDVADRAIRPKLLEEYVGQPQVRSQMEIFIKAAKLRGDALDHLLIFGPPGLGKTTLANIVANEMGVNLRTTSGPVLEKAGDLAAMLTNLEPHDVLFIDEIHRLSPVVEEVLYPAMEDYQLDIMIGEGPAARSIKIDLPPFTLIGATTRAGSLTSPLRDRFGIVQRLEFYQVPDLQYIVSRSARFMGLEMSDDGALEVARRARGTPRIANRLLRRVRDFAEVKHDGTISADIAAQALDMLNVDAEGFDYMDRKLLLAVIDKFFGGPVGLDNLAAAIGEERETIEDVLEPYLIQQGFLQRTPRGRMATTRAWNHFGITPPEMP

SMILES: CCO [ethanol]
- coupled colorimetric assay (PedH): Ethanol dehydrogenase activity of PedH reconstituted with PQQ or PQQ probes was measured

SMILES: OC[C@H]1OC(O)[C@H](O)[C@@H](O)[C@@H]1O (stereo partly shown) [glucose]
- coupled colorimetric assay (YliI): Glucose dehydrogenase activity of YliI reconstituted with PQQ or PQQ probes was measured

SMILES: O=C(O)c1cc(C(=O)O)c2c(n1)C(=O)C(=O)c1cc(C(=O)O)[nH]c1-2 [PQQ, Pyrroloquinoline quinone]
- +310 Da mass shift (SurA): covalent PQQ binding in the case of Tig, HtpG, MBP, RuvB, SurA, and PpiD
- +310 Da mass shift (Tig (trigger factor)): covalent PQQ binding in the case of Tig, HtpG, MBP, RuvB, SurA, and PpiD
- UV/vis spectral shift; competition of PQQ4 labelling (FklB): addition of the cofactor revealed characteristic spectroscopic shifts comparable to those of YliI and PedH
- +310 Da mass shift [1]: covalent PQQ binding in the case of Tig, HtpG, MBP, RuvB, SurA, and PpiD
- +310 Da mass shift (HtpG): covalent PQQ binding in the case of Tig, HtpG, MBP, RuvB, SurA, and PpiD
- mass shift [2]: confirmed Tig and 6GPD as covalent binding protein hits
- +310 Da mass shift (PpiD): covalent PQQ binding in the case of Tig, HtpG, MBP, RuvB, SurA, and PpiD
- +310 Da mass shift (RuvB): confirming K26 as the predominant covalent binding site

Source: PMC13088180, “Chemical Proteomics Reveal the Inventory of Pyrroloquinoline Quinone Binding Proteins in Bacteria” (Journal of the American Chemical Society, 2026)
